Entries after “also recorded” stand apart in the source; their conditions may differ.
Assays:
[1] = tested on: iTbph^pkk(108254) Drosophila model; assay: Adult pharate lethality / pupa eclosion assay; format: in vivo; settings: 30 μM
Protocol: FIG. 8. […] A) Number of total pupas and the eclosioned ones were counted in different 5 tubes each group. […] T-test was performed ***p<0,001. Values are expressed as percentage mean+SD.
As mentioned in Example 6, iTbph^pkk(108254) Drosophila completed the metamorphosis from larvae to adult within the pupa (a phase known as pharate), but were not able to eclode from the pupa and, consequently, died. This feature is termed as adult pharate lethality and allowed us to perform assays with which to judge the efficacy of FoxO inhibition.

[2] = tested on: Drosophila with motor neuron-specific (OK6 promoter) Tbph silencing; assay: Locomotor activity (climbing) assay in motor neuron-specific Tbph/Caz knockdown flies; format: in vivo, Drosophila melanogaster; settings: 30 μM, 20 days-old flies
Text: FIG. 9. FOXO1inh rescues (AS1842856) impaired climbing capacity induced by motor neuron-specific knockdown of ALS-causing ortholog genes in Drosophila melanogaster. Represented two different models of Tbph silence (silencing two different locus of Tbph gene) and one Caz (FUS ortholog) A) Locomotor activity of motor neuron specific (OK6 promoter) Tbph silencing Drosophila melanogaster using iTbph(p(KK08354)) plasmid. Generated genotypes; UAS-Dicer2-+-OK6-GAL4 (control) and UAS-Dicer2-iTbph^p(KK08354)-OK6-GAL4 (iTbph^p(KK08354)). B) Locomotor activity of motor neuron specific (OK6 promoter) Tbph silencing Drosophila melanogaster using iTbph(attP40) plasmid.; UAS-Dicer2-+-OK6-GAL4 (control) and UAS-Dicer2-iTbph^(attP40)-OK6-GAL4 (iTbph^(attP40)). C) Locomotor activity of motor neuron specific (OK6 promoter) Tbph silencing Drosophila melanogaster using iCaz plasmid.; UAS-Dicer2-+-OK6-GAL4 (control) and UAS-Dicer2-iCaz-OK6-GAL4 (iCaz). Assays were performed at 20 days-old flies and repeated 5 times each tube (5 flies/tube). Data are expressed as the percentage of flies passing for each group.
Two-way ANOVA was performed together Bonferroni post-hoc multiple comparison (*p<0.05; **p<0.01; ***p<0.001) or T-test for two groups comparisons (*p<0.05; **p<0.01; ***p<0.001). Values are expressed as mean+SD.
One of the most important features of ALS is motor neuron degeneration. […]

primary ALS myoblasts = assay: Glycolytic flux (ECAR) of primary ALS myoblasts; format: cell-based, human
Text: We looked at preliminary links between the findings in genetically-induced myoblasts and features of myoblasts from patients with ALS. To this aim, we cultured primary myoblasts obtained from muscle biopsies of two patients with ALS (patient 1 is sporadic [sALS] and patient 2 is familial [fALS]) and one control. […] Changes in TDP-43 localization were accompanied by an altered subcellular distribution of FoxO1, as reflected by increased levels of FoxO1 and FoxO3 in nuclei (FIG. 6A,C) and enhanced nuclear-to-cytosolic ratio in both patients (FIG. 6C). Remarkably, nuclear localizations of TDP-43 and FoxO1 were inversely associated in patient 2 (FIG. 6D).
As expected, alterations of FoxO1 in ALS myoblasts were accompanied by aberrant glycolytic flux, as indicated by lower ECAR values after addition of glucose to the media (FIG. 6F).

[3] = tested on: TDP-43 or FUS-silenced human immortalized myoblasts (cell line 8220); assay: Metabolic flux analysis (ECAR/OCR) in TDP-43 or FUS-silenced myoblasts; format: cell-based; settings: 30 nM
Text: The translocation of TDP-43 to cytoplasm is involved in myoblast differentiation and myotube generation (see reference 14). […] Thus, given the potential implication of TDP-43 and FUS in myogenesis, we modelled the loss-of-function of these genes in the human immortalized myoblast cell line 8220 by treating these cells with shRNA-expressing lentiviral particles for TDP-43 or FUS, and further analyzed any change on cell morphology, growth and myogenic capacity (FIG. 1D).
Molecular signaling factors and reprogramming of energy metabolism are considered crucial regulators of myogenesis during adult muscle regeneration. Since TDP-43 controls skeletal muscle glucose homeostasis, we wanted to investigate whether myogenic defects induced by loss of TDP-43, and in extension of FUS, may be mediated by abnormalities of glucose metabolism. Regarding the latest, various studies conducted in Drosophila, zebrafish and mouse myoblasts have highlighted glucose metabolism as part of the core myogenic program because of its ability to provide both the rapid source of energy and the building blocks (amino acids and nucleotides) that are required for biomass production during the formation of syncytial muscles. […]

CCn1cc(C(=O)O)c(=O)c2c(N)c(F)c(NC3CCCCC3)cc21 [AS1842856]
eclosion efficiency of pupas ([1]; UAS-Dicer2-iTbph^pkk(108254)-Mef2-GAL4): significantly ameliorates
pharate lethality in control flies ([1]; control flies): did not produce pharate lethality
mitigation of pharate lethality ([1]; iTbph^pkk(108254) Drosophila): approximately 20%
locomotor impairments in climbing assay [2]: rescues; also recorded: fully rescue locomotor impairments
basal glycolysis rate (ECAR after glucose) (primary ALS myoblasts): corrected; also recorded: improved the basal glycolysis rate
repressed glycolytic traits (glucose- and oligomycin-stimulated ECAR) ([3]; proliferating myoblasts silenced for either TDP-43 or FUS): significant recovery
mitochondrial ATP production ([3]; shTDP-43 and shFUS-treated myoblasts): enhanced mitochondrial ATP production; also recorded: improved the mitochondrial ATP production
